# Literature values, collected in US20220257649A1, “COMBINATION THERAPIES FOR MULTIPLE MYELOMA” (NantCell, Inc., priority 2018, published 2022).
# Key:
# [1] = tested on: multiple myeloma; settings: for rate of nearly complete response (CR): in combination with dexamethasone, induction therapy before ASCT; for rate of nearly CR: three-drug induction schedule: bortezomib-dexamethasone plus the named drug
# [2] = tested on: primary multiple myeloma cells; settings: in the presence of peripheral lymphocytes
# [3] = tested on: relapsed or refractory multiple myeloma; settings: alone, with bortezomib, or with lenalidomide and low-dose dexamethasone
# [4] = biological target: T1, IL-2Rβγ (Homo sapiens, UniProt P14784+P31785); settings: IL-15 mutant
# T1 sequence (P14784 27-551): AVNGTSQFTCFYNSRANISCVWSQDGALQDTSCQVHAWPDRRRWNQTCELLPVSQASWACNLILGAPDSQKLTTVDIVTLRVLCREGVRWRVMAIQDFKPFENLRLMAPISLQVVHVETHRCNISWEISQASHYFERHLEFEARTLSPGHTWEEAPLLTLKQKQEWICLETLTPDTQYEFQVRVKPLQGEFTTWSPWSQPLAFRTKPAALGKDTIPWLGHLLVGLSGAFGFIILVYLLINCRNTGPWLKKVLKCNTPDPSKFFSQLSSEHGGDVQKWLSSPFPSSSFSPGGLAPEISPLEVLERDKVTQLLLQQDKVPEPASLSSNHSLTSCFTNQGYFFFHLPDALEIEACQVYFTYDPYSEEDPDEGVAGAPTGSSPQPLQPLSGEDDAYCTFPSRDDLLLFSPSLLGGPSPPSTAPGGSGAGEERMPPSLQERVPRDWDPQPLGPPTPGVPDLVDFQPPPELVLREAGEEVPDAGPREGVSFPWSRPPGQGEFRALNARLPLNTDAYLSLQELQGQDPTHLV
# T1 sequence (P31785 23-369): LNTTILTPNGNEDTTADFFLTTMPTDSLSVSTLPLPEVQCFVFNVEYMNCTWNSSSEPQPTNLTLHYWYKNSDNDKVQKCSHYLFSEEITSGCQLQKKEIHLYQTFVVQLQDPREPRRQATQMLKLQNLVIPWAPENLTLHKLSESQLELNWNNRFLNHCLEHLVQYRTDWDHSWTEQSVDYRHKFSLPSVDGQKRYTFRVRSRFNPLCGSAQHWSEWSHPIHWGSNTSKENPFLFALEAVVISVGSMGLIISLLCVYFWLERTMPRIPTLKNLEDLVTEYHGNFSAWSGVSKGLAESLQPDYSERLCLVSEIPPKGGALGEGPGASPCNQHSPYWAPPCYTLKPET
# [5] = following i.v. administration in mice
# [6] = tested on: aggressive solid and hematological tumor models
# [7] = tested on: IL-15 activity; settings: in vitro and in vivo
compound,measurement,setting,value
O=C1CCC(N2C(=O)c3ccccc3C2=O)C(=O)N1 (stereo not drawn) [Thalidomide],rate of nearly complete response (CR),[1],8%
same,rate of nearly CR,[1],32%
CC(C)C[C@H](NC(=O)[C@H](Cc1ccccc1)NC(=O)c1cnccn1)B(O)O [bortezomib],rate of nearly complete response (CR),[1],16%
O=P1(N(CCCl)CCCl)NCCCO1 (stereo not drawn) [cyclophosphamide],rate of nearly CR,[1],39%
COc1cccc2c1C(=O)c1c(O)c3c(c(O)c1C2=O)C[C@@](O)(C(=O)CO)C[C@@H]3O[C@H]1C[C@H](N)[C@H](O)[C@H](C)O1 [doxorubicin],rate of nearly CR,[1],7%
Nc1cccc2c1CN(C1CCC(=O)NC1=O)C2=O (stereo not drawn) [lenalidomide],rate of nearly complete response (CR),[1],15%
same,rate of nearly CR,[1],57%
Elotuzumab: humanized monoclonal IgG1 antibody directed against CS-1,antibody-dependent cellular cytotoxicity (ADCC),[2],significant antibody-dependent cellular cytotoxicity (ADCC)
same,activity,[3],encouraging activity
same,safety profile,[3],manageable safety profile
IL-15N72D: IL-15 mutant with increased ability to bind IL-2Rβγ; component of N-803,ability to bind IL-2Rβγ,[4],increased ability to bind IL-2Rβγ
N-803: IL-15 super agonist complex: IL-15 mutant (IL-15N72D) bound to an IL-15 receptor α/IgG1 Fc fusion protein,half-life,[5],25 h
same,anti-tumor activity,"[6]; aggressive solid and hematological tumor models, immunocompetent mice",impressive anti-tumor activity
same,resistance of cured tumor-bearing mice to re-challenge with the same tumor cells,[6]; mice cured after N-803 treatment,highly resistant to re- challenge
same,IL-15 activity,[7],highly potent IL-15 activity
